Assay [1] deals with T1, Erythropoietin receptor (Homo sapiens) (UniProt P19235).
T1 sequence (whole entry): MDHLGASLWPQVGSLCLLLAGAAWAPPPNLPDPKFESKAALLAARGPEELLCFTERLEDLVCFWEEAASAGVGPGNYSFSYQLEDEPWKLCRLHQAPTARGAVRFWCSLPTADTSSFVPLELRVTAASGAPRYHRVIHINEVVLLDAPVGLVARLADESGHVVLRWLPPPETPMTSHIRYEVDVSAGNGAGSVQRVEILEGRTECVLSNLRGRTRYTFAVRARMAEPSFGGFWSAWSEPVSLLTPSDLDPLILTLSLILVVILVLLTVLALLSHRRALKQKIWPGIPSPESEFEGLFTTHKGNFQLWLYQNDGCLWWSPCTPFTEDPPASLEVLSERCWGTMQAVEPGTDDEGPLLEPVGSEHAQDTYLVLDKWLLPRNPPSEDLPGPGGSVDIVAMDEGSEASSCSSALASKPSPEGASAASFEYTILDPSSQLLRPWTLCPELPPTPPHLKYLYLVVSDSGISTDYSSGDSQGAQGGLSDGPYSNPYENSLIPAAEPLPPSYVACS
The assay can be described thus: Compound was evaluated for inhibition of [125I]EPO binding to Erythropoietin receptor (EBP) at a concentration of 50 uM.

In assay [2] the target is T2, Erythropoietin receptor (Homo sapiens, UniProt P19235).
T2 sequence (P19235 whole entry): T1 sequence (whole entry)
Put plainly: Compound was evaluated for inhibition of [125I]-EPO binding to Erythropoietin receptor (EBP).

Assay [3] concerns the target T2, Erythropoietin receptor. The assay can be described thus: Compound was evaluated for inhibition of [125I]EPO binding to Erythropoietin receptor (EBP).
Assay [4] addresses T1, Erythropoietin receptor (Homo sapiens). Put plainly: Compound was evaluated for inhibition of [125I]EPO binding to EBP (erythropoietin receptor) at a concentration of 50 uM.

Where a SMILES comes first, the peptide text is derived from it.

`COC(=O)[C@H](CCC(=O)O)NC/C=C/c1cccc(Oc2ccccc2)c1`: the inhibition in assay [1] stood at 6%. Same read-out and setting: the figure for `COC(=O)[C@H](CCCCN)N(Cc1ccc(OCc2ccccc2)cc1)Cc1cccc([N+](=O)[O-])c1` is 37%; for `COC(=O)[C@H](CCCCNC(=O)OC(C)(C)C)N(Cc1ccc(OCc2ccccc2)cc1)Cc1cccc([N+](=O)[O-])c1` it is 24%. `O=C(O)CCC(=O)NCCCC[C@@H](C(=O)NCCCOCCOCCOCCCNC(=O)[C@H](CCCCNC(=O)CCC(=O)O)N(Cc1ccc(OCc2ccccc2)cc1)Cc1ccc(OCc2ccccc2)cc1)N(Cc1ccc(OCc2ccccc2)cc1)Cc1ccc(OCc2ccccc2)cc1` showed an inhibition in assay [1] of 77%. In addition, in assay [2], the half-maximal inhibitory concentration (IC50) came out at 7 µM. In the same order, the values of `O=C(O)CC[C@@H](C(=O)O)N(C/C=C/c1cccc(Oc2cccc(C(F)(F)F)c2)c1)C/C=C/c1cccc(Oc2cccc(C(F)(F)F)c2)c1` are 70% and 35 µM. The molecule `COC(=O)[C@H](CCC(=O)OC(C)(C)C)N(C/C=C/c1cccc(Oc2ccccc2)c1)C/C=C/c1cccc(Oc2ccccc2)c1` came in with an inhibition in assay [1] of 0%. The molecule `COC(=O)[C@H](CCCCNC(N)=O)N(C/C=C/c1cccc(Oc2ccccc2)c1)C/C=C/c1cccc(Oc2ccccc2)c1` showed an inhibition in assay [1] of 73%. The molecule also displayed an IC50 in assay [2] of 35 µM. On to `O=C(O)CCCC(=O)NCCCC[C@H](C(=O)NCCOCCOCCNC(=O)[C@H](CCCCNC(=O)CCCC(=O)O)N(Cc1ccc(OCc2ccccc2)cc1)Cc1ccc(OCc2ccccc2)cc1)N(Cc1ccc(OCc2ccccc2)cc1)Cc1ccc(OCc2ccccc2)cc1`, for which the inhibition in assay [1] came to 88%. In assay [2], this molecule gave a half-inhibitory concentration (IC50) of 1.5 µM. Consider `COC(=O)[C@H](COC(C)(C)C)NC/C=C/c1cccc(Oc2ccccc2)c1`, for which the inhibition in assay [1] amounted to 8%. Take `O=C(O)CC[C@@H](C(=O)O)N(C/C=C/c1cccc(Oc2ccccc2)c1)C/C=C/c1cccc(Oc2ccccc2)c1`: in assay [1], the inhibition worked out at 78%. In assay [2], this molecule gave an IC50 of 42 µM. Regarding `COC(=O)[C@H](CCCCN)N(Cc1ccc(OCc2ccccc2)cc1)Cc1ccc(OCc2ccccc2)cc1`, in assay [1], the inhibition is 54%. On the same count and under the same terms, the figure for `O=C(O)[C@H](CO)NC/C=C/c1cccc(Oc2ccccc2)c1` is 23%; for `O=C(O)CC[C@H](C(=O)NCCOCCOCCNC(=O)[C@H](CCC(=O)O)N(Cc1ccc(OCc2ccccc2)cc1)Cc1ccc(OCc2ccccc2)cc1)N(Cc1ccc(OCc2ccccc2)cc1)Cc1ccc(OCc2ccccc2)cc1` it is 79%; for `COC(=O)[C@H](CCCCNC(=O)OC(C)(C)C)NC/C=C/c1cccc(Oc2ccccc2)c1` it is 20%. On the same count and under the same terms, the figure for `O=C(O)C[C@@H](C(=O)O)N(C/C=C/c1cccc(Oc2ccccc2)c1)C/C=C/c1cccc(Oc2ccccc2)c1` is 81%; for `COC(=O)[C@H](CCCCNC(=O)OC(C)(C)C)N(Cc1cccc(OCc2ccccc2)c1)Cc1cccc(OCc2ccccc2)c1` it is 7%. Take `COC(=O)[C@H](CCCCNS(C)(=O)=O)N(C/C=C/c1cccc(Oc2ccccc2)c1)C/C=C/c1cccc(Oc2ccccc2)c1`: the inhibition in assay [1] stood at 77%. The same molecule displayed an IC50 in assay [2] of 35 µM. In the same order, the values of `O=C(O)CCC(=O)NCCCC[C@H](C(=O)NCCOCCOCCNC(=O)[C@H](CCCCNC(=O)CCC(=O)O)N(Cc1ccc(OCc2ccccc2)cc1)Cc1ccc(OCc2ccccc2)cc1)N(Cc1ccc(OCc2ccccc2)cc1)Cc1ccc(OCc2ccccc2)cc1` are 93% and 1.5 µM.

Take `COC(=O)[C@H](CCCCNC(=O)OC(C)(C)C)N(Cc1ccc(OCc2ccccc2)cc1)Cc1ccc(OCc2ccccc2)cc1`: the inhibition in assay [1] is 5%. Consider `CC(C)C[C@@H]1NC(=O)[C@H]([C@@H](C)O)NC(=O)[C@H](Cc2c[nH]c3ccccc23)NC(=O)[C@H](C(C)C)NC(=O)[C@@H](NC(=O)[C@H](CCCCN)NC(=O)[C@@H]2CCCN2C(=O)[C@H](CCC(N)=O)NC(=O)CNC(=O)CN)CSSC[C@@H](C(=O)N[C@@H](Cc2ccc(O)cc2)C(=O)N[C@@H](CO)C(=O)N[C@H](C(=O)NCC(=O)NCC(N)=O)[C@@H](C)O)NC(=O)[C@H](Cc2c[nH]cn2)NC(=O)[C@H](Cc2ccccc2)NC(=O)CNC(=O)[C@@H]2CCCN2C1=O` (HELM PEPTIDE1{G.G.Q.P.K.C.V.W.T.L.P.G.F.H.C.Y.S.T.G.G.[am]}$PEPTIDE1,PEPTIDE1,6:R3-15:R3$$$V2.0), for which, in assay [3], the IC50 was 5 µM. The molecule `O=C(O)C[C@H](C(=O)NCCCOCCCCOCCCNC(=O)[C@H](CC(=O)O)N(Cc1ccc(OCc2ccccc2)cc1)Cc1ccc(OCc2ccccc2)cc1)N(Cc1ccc(OCc2ccccc2)cc1)Cc1ccc(OCc2ccccc2)cc1` returned an inhibition in assay [1] of 75%. The molecule further yielded an IC50 in assay [2] of 18 µM.

For the molecule `COC(=O)[C@H](CO)NC/C=C/c1cccc(Oc2ccccc2)c1`, the inhibition in assay [1] is 28%. Same read-out and setting: the figure for `COC(=O)[C@H](CCCCNC(=O)OC(C)(C)C)N(C/C=C/c1cccc(Oc2ccccc2)c1)C/C=C/c1cccc(Oc2ccccc2)c1` is 0%.

As for `NCCCC[C@H](C(=O)NCCOCCOCCNC(=O)[C@H](CCCCN)N(Cc1ccc(OCc2ccccc2)cc1)Cc1ccc(OCc2ccccc2)cc1)N(Cc1ccc(OCc2ccccc2)cc1)Cc1ccc(OCc2ccccc2)cc1`, the inhibition in assay [1] came to 51%. Further, in assay [2], the half-maximal inhibitory concentration (IC50) came to 2 µM. In the same order, the values of `O=C(O)CCCC(=O)NCCCC[C@H](C(=O)NCCCCCCCCCCCCNC(=O)[C@H](CCCCNC(=O)CCCC(=O)O)N(Cc1ccc(OCc2ccccc2)cc1)Cc1ccc(OCc2ccccc2)cc1)N(Cc1ccc(OCc2ccccc2)cc1)Cc1ccc(OCc2ccccc2)cc1` are 55% and 85 µM. In the same order, the values of `O=C(O)CCC(=O)NCCCC[C@H](C(=O)NCCCOCCCCOCCCNC(=O)[C@H](CCCCNC(=O)CCC(=O)O)N(Cc1ccc(OCc2ccccc2)cc1)Cc1ccc(OCc2ccccc2)cc1)N(Cc1ccc(OCc2ccccc2)cc1)Cc1ccc(OCc2ccccc2)cc1` are 65% and 6 µM. As for `COC(=O)[C@H](CCC(=O)OC(C)(C)C)NC/C=C/c1cccc(Oc2ccccc2)c1`, the inhibition in assay [4] is 6%.

For the molecule `O=C(O)CC[C@H](NC/C=C/c1cccc(Oc2ccccc2)c1)C(=O)O`, the inhibition in assay [1] worked out at 0%. In assay [1], `COC(=O)[C@H](CCCCN)N(Cc1cccc(OCc2ccccc2)c1)Cc1cccc(OCc2ccccc2)c1` showed an inhibition of 59%. Moreover, the IC50 in assay [2] is 10 µM. `O=C(O)CCCC(=O)NCCCC[C@@H](C(=O)NCCCOCCOCCOCCCNC(=O)[C@H](CCCCNC(=O)CCCC(=O)O)N(Cc1ccc(OCc2ccccc2)cc1)Cc1ccc(OCc2ccccc2)cc1)N(Cc1ccc(OCc2ccccc2)cc1)Cc1ccc(OCc2ccccc2)cc1` registered an inhibition in assay [1] of 78%. This molecule also yielded an IC50 in assay [2] of 10 µM. In turn, `O=C(O)CCCC(=O)NCCCC[C@H](C(=O)NCCCOCCCCOCCCNC(=O)[C@H](CCCCNC(=O)CCCC(=O)O)N(Cc1ccc(OCc2ccccc2)cc1)Cc1ccc(OCc2ccccc2)cc1)N(Cc1ccc(OCc2ccccc2)cc1)Cc1ccc(OCc2ccccc2)cc1` came in with an inhibition in assay [1] of 82%. For the same molecule, the 50% inhibitory concentration (IC50) in assay [2] was 4 µM.

For `CC(C)(C)OC(=O)C[C@@H](C(=O)OC(C)(C)C)N(C/C=C/c1cccc(Oc2ccccc2)c1)C/C=C/c1cccc(Oc2ccccc2)c1`, the inhibition in assay [1] amounted to 20%.

For the molecule `COC(=O)[C@H](CCCCN)N(C/C=C/c1cccc(Oc2ccc(C(C)(C)C)cc2)c1)C/C=C/c1cccc(Oc2ccc(C(C)(C)C)cc2)c1`, in assay [1], the inhibition came to 18%. As for `COC(=O)[C@H](CO)N(C/C=C/c1cccc(Oc2ccccc2)c1)C/C=C/c1cccc(Oc2ccccc2)c1`, in assay [1], the inhibition is 57%. The concentration for half-maximal inhibition (IC50) in assay [2] came to 145 µM. In turn, `COC(=O)[C@H](CCCCNC(=O)OC(C)(C)C)N(C/C=C/c1cccc(Oc2ccc(C(C)(C)C)cc2)c1)C/C=C/c1cccc(Oc2ccc(C(C)(C)C)cc2)c1` showed an inhibition in assay [1] of 0%. On the same count and under the same terms, the figure for `COC(=O)[C@H](COC(C)(C)C)N(C/C=C/c1cccc(Oc2ccccc2)c1)C/C=C/c1cccc(Oc2ccccc2)c1` is 0%. Molecule `O=C(O)C[C@@H](C(=O)NCCCOCCOCCOCCCNC(=O)[C@H](CC(=O)O)N(Cc1ccc(OCc2ccccc2)cc1)Cc1ccc(OCc2ccccc2)cc1)N(Cc1ccc(OCc2ccccc2)cc1)Cc1ccc(OCc2ccccc2)cc1` returned an inhibition in assay [1] of 66%. The concentration for half-maximal inhibition (IC50) in assay [2] came to 28 µM. Turning to `CC(C)(C)OC(=O)CC[C@H](NC/C=C/c1cccc(Oc2ccccc2)c1)C(=O)O`, the inhibition in assay [1] worked out at 0%.

Turning to `O=C(O)CCC(=O)NCCCC[C@H](C(=O)NCCCCCCCCCCCCNC(=O)[C@H](CCCCNC(=O)CCC(=O)O)N(Cc1ccc(OCc2ccccc2)cc1)Cc1ccc(OCc2ccccc2)cc1)N(Cc1ccc(OCc2ccccc2)cc1)Cc1ccc(OCc2ccccc2)cc1`, the inhibition in assay [1] was 56%. Moreover, the IC50 in assay [2] was determined as 100 µM. Molecule `COC(=O)[C@H](CCC(=O)O)N(C/C=C/c1cccc(Oc2ccc(Cl)c(Cl)c2)c1)C/C=C/c1cccc(Oc2ccc(Cl)c(Cl)c2)c1` displayed an inhibition in assay [1] of 32%. For the molecule `C[C@@H](C(=O)O)N(C/C=C/c1cccc(Oc2ccccc2)c1)C/C=C/c1cccc(Oc2ccccc2)c1`, the inhibition in assay [1] was determined as 72%. In assay [2], the IC50 was determined as 40 µM. The matching figures for `CC(C)(C)c1ccc(Oc2cccc(/C=C/CN(C/C=C/c3cccc(Oc4ccc(C(C)(C)C)cc4)c3)[C@@H](CCC(=O)O)C(=O)O)c2)cc1`: 78% and 30 µM. Regarding `O=C(O)CN(C/C=C/c1cccc(Oc2ccccc2)c1)C/C=C/c1cccc(Oc2ccccc2)c1`, the inhibition in assay [1] was determined as 45%.

As a reminder, the inhibition is the share of the control response that was lost under treatment. For orientation: IC50 means the concentration that gives 50% inhibition.
